The assay deals with L1210 leukemia ip in BDF1 mice, survival T/C. The assay can be described thus: NCI In Vivo Anticancer Drug Screen. Data for tumor model L1210 Leukemia (intraperitoneal) in B6D2F1 (BDF1) mice. To be noted: endpoint: mean survival time, higher = longer survival. The procedure, abridged:
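Transplanted-tumor mice were given test agent; controls received vehicle only. Survival readings from the two groups were divided (treated over control).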

The mark [1] stands for this setting: dose: 100.0 mg/kg/injection, schedule: Q01DX009 (ip), vehicle: Klucel (hydroxypropylcellulose) (HPC).
Setting [2] is: dose: 200.0 mg/kg/injection, schedule: Q01DX009 (ip), vehicle: Klucel (hydroxypropylcellulose) (HPC).
[3] abbreviates: dose: 400.0 mg/kg/injection, schedule: Q01DX009 (ip), vehicle: Klucel (hydroxypropylcellulose) (HPC).
Where [4] appears, read: dose: 25.0 mg/kg/injection, schedule: Q04DX003 (ip), vehicle: saline.
The mark [5] stands for this setting: dose: 50.0 mg/kg/injection, schedule: Q01DX001 (ip), vehicle: saline.
[6] abbreviates: dose: 50.0 mg/kg/injection, schedule: Q04DX003 (ip), vehicle: saline.
[7] abbreviates: dose: 100.0 mg/kg/injection, schedule: Q04DX003 (ip), vehicle: saline with Tween-80.
Setting [8] is: dose: 200.0 mg/kg/injection, schedule: Q04DX003 (ip), vehicle: saline with Tween-80.

Values joined by “and” are separate entries in the source; they are usually repeats but may differ in a detail not shown here. Equal entries are not always repeated. Inconclusive results and toxic doses are left out.

In the case of `CC1OC(OC2C(CO)OC(O[C@H]3CC[C@@]4(C)C(=CC[C@H]5[C@@H]6C[C@@H]7O[C@@]8(CC[C@H](C)CN8)[C@@H](C)[C@@H]7[C@@]6(C)CC[C@@H]54)C3)C(OC3OC(C)C(O)C(O)C3O)C2O)C(O)C(O)C1O` (stereo partly drawn), the T/C by setting is: (dose: 10.0 mg/kg/injection, schedule: Q01DX009 (ip), vehicle: saline) 115 % of control; (dose: 20.0 mg/kg/injection, schedule: Q01DX009 (ip), vehicle: saline) 103 % of control; (dose: 40.0 mg/kg/injection, schedule: Q01DX009 (ip), vehicle: saline) 100 % of control; (dose: 80.0 mg/kg/injection, schedule: Q01DX009 (ip), vehicle: saline) 103 % of control.

`O=C(Cc1ccccc1)NCc1ccco1`: the T/C was 100 % of control (dose: 25.0 mg/kg/injection, schedule: Q01DX009 (ip), vehicle: Klucel (hydroxypropylcellulose) (HPC)); 94 % of control (dose: 50.0 mg/kg/injection, schedule: Q01DX009 (ip), vehicle: Klucel (hydroxypropylcellulose) (HPC)); 90 % of control (dose: 100.0 mg/kg/injection, schedule: Q04DX002 (ip), vehicle: Klucel (hydroxypropylcellulose) (HPC)).

As to `COc1ccc(Cl)cc1NC(=O)Oc1ccc(F)cc1`, the T/C is, setting by setting: under setting [1], 87 % of control; under setting [2], 97 % of control; under setting [3], 87 % of control.

Consider `O=c1c2ccc(Cl)cc2[nH]c(=S)n1-c1ccc(Cl)cc1`, for which the T/C reads like this: (dose: 100.0 mg/kg/injection, schedule: Q01DX009 (ip), vehicle: saline with Tween-80) 89 % of control; (dose: 200.0 mg/kg/injection, schedule: Q01DX009 (ip), vehicle: saline with Tween-80) 89 % of control; (dose: 400.0 mg/kg/injection, schedule: Q01DX009 (ip), vehicle: saline with Tween-80) 87 % of control.

As to `OCCOCCN1CCN(CCCN2c3ccccc3Sc3ccc(C(F)(F)F)cc32)CC1`, the T/C is 104 % of control (dose: 1.6 mg/kg/injection, schedule: Q01DX009 (ip), vehicle: saline); 117 % of control (dose: 6.25 mg/kg/injection, schedule: Q01DX009 (ip), vehicle: saline); 100 % of control (dose: 9.5 mg/kg/injection, schedule: Q01DX001 (ip), vehicle: saline); 93 % of control (dose: 12.5 mg/kg/injection, schedule: Q01DX009 (ip), vehicle: saline); 114 % of control and 124 % of control (dose: 12.5 mg/kg/injection, schedule: Q04DX003 (ip), vehicle: saline); 124 % of control (dose: 18.7 mg/kg/injection, schedule: Q04DX003 (ip), vehicle: saline). The T/C was 95 % of control (dose: 18.75 mg/kg/injection, schedule: Q01DX009 (ip), vehicle: saline); 107 % of control (dose: 19.0 mg/kg/injection, schedule: Q01DX001 (ip), vehicle: saline); 103 % of control (dose: 25.0 mg/kg/injection, schedule: Q01DX009 (ip), vehicle: saline); 95 % of control and 118 % of control and 120 % of control under setting [4]; 122 % of control (dose: 33.0 mg/kg/injection, schedule: Q04DX003 (ip), vehicle: saline); 111 % of control (dose: 38.0 mg/kg/injection, schedule: Q01DX001 (ip), vehicle: saline). Moreover, the T/C is 150 % of control (dose: 120.0 mg/kg/injection, schedule: Q04DX003 (ip), vehicle: saline); 118 % of control (dose: 150.0 mg/kg/injection, schedule: Q04DX003 (ip), vehicle: saline); 95 % of control (dose: 1.5 micrograms/kg/injection, schedule: Q01DX009 (ip), vehicle: saline); 106 % of control (dose: 3.1 micrograms/kg/injection, schedule: Q01DX009 (ip), vehicle: saline); 95 % of control (dose: 6.2 micrograms/kg/injection, schedule: Q01DX009 (ip), vehicle: saline); 93 % of control (dose: 12.5 micrograms/kg/injection, schedule: Q01DX009 (ip), vehicle: saline). Further, the T/C (dose: 25.0 micrograms/kg/injection, schedule: Q01DX009 (ip), vehicle: saline) was 103 % of control; the T/C (dose: 50.0 micrograms/kg/injection, schedule: Q01DX009 (ip), vehicle: saline) is 87 % of control; the T/C (dose: 100.0 micrograms/kg/injection, schedule: Q01DX009 (ip), vehicle: saline) is 103 % of control; the T/C (dose: 200.0 micrograms/kg/injection, schedule: Q01DX009 (ip), vehicle: saline) was 103 % of control.

`CCCCCCCCCCCCOc1ccc(Sc2ccc([N+](=O)[O-])cc2)cc1`: the T/C (dose: 100.0 mg/kg/injection, schedule: Q01DX001 (ip), vehicle: Klucel (hydroxypropylcellulose) (HPC)) is 95 % of control; the T/C (dose: 200.0 mg/kg/injection, schedule: Q01DX001 (ip), vehicle: Klucel (hydroxypropylcellulose) (HPC)) is 87 % of control; the T/C (dose: 400.0 mg/kg/injection, schedule: Q01DX001 (ip), vehicle: Klucel (hydroxypropylcellulose) (HPC)) was 90 % of control.

With `CC(C)C(=O)CC(=O)C(C)C.CC(C)C(=O)CC(=O)C(C)C.[Cu]`, the T/C runs as follows: (dose: 12.0 mg/kg/injection, schedule: Q01DX001 (ip), vehicle: saline) 93 % of control; (dose: 12.0 mg/kg/injection, schedule: Q04DX003 (ip), vehicle: saline) 90 % of control; (dose: 25.0 mg/kg/injection, schedule: Q01DX001 (ip), vehicle: saline) 98 % of control; under setting [4], 98 % of control; under setting [5], 98 % of control; under setting [6], 96 % of control.

Take `COC1OC(CN(CCCl)C(C)=O)C2OC(C)(C)OC12` (stereo not drawn): the T/C was 96 % of control under setting [6]; 94 % of control (dose: 100.0 mg/kg/injection, schedule: Q04DX003 (ip), vehicle: saline); 92 % of control (dose: 200.0 mg/kg/injection, schedule: Q04DX003 (ip), vehicle: saline); 100 % of control (dose: 400.0 mg/kg/injection, schedule: Q04DX003 (ip), vehicle: saline).

Regarding `CCC(CC)(CC)C(OC(=O)c1ccccc1C(=O)O)c1ccccc1` (stereo not drawn), the T/C by setting is: under setting [5], 95 % of control; (dose: 100.0 mg/kg/injection, schedule: Q01DX001 (ip), vehicle: saline) 95 % of control; (dose: 200.0 mg/kg/injection, schedule: Q01DX001 (ip), vehicle: saline) 97 % of control; (dose: 400.0 mg/kg/injection, schedule: Q01DX001 (ip), vehicle: saline) 88 % of control.

For the compound `OC(CBr)c1ccc(Cl)c(Cl)c1` (stereo not drawn), the T/C was 103 % of control under setting [1]; 97 % of control (dose: 100.0 mg/kg/injection, schedule: Q04DX003 (ip), vehicle: Klucel (hydroxypropylcellulose) (HPC)); 105 % of control under setting [2]; 103 % of control (dose: 200.0 mg/kg/injection, schedule: Q04DX003 (ip), vehicle: Klucel (hydroxypropylcellulose) (HPC)); 97 % of control under setting [3]; 103 % of control (dose: 400.0 mg/kg/injection, schedule: Q04DX003 (ip), vehicle: Klucel (hydroxypropylcellulose) (HPC)).

For `N#CC12C(=O)C3C4C=CC(C4)C3C(=O)C1(C#N)C1C=CC2C1` (stereo not drawn), the T/C is 94 % of control under setting [7] and 92 % of control under setting [8].

Take `Cc1ccc2[nH]c(=O)cc(C)c2c1`: the T/C was 102 % of control (dose: 100.0 mg/kg/injection, schedule: Q01DX001 (ip), vehicle: carboxymethylcellulose (CMC)); 95 % of control under setting [7]; 98 % of control under setting [8]; 101 % of control (dose: 400.0 mg/kg/injection, schedule: Q04DX003 (ip), vehicle: saline with Tween-80).

Take `O=C1c2ccccc2C(=O)N1CNc1ccccc1/C(=N/O)c1ccccc1`: the T/C by setting is: (dose: 87.5 mg/kg/injection, schedule: Q01DX009 (ip), vehicle: Klucel (hydroxypropylcellulose) (HPC)) 95 % of control; (dose: 175.0 mg/kg/injection, schedule: Q01DX009 (ip), vehicle: Klucel (hydroxypropylcellulose) (HPC)) 93 % of control; (dose: 350.0 mg/kg/injection, schedule: Q01DX009 (ip), vehicle: Klucel (hydroxypropylcellulose) (HPC)) 93 % of control.

As for `CCCCC(I)C(C)(C)[n+]1ccccc1` (stereo not drawn), the T/C is, setting by setting: (dose: 12.5 mg/kg/injection, schedule: Q01DX009 (ip), vehicle: saline with Tween-80) 119 % of control; (dose: 12.5 mg/kg/injection, schedule: Q04DX003 (ip), vehicle: saline with Tween-80) 100 % of control; (dose: 25.0 mg/kg/injection, schedule: Q01DX009 (ip), vehicle: saline with Tween-80) 106 % of control; (dose: 25.0 mg/kg/injection, schedule: Q04DX003 (ip), vehicle: saline with Tween-80) 96 % of control; (dose: 50.0 mg/kg/injection, schedule: Q01DX009 (ip), vehicle: saline with Tween-80) 101 % of control; (dose: 50.0 mg/kg/injection, schedule: Q04DX003 (ip), vehicle: saline with Tween-80) 100 % of control.
